Converted amounts (≈) assume the structure as drawn.
Columns and labels:
Format in all cases: functional
Sporothrix schenckii [1] = assay: Antifungal activity against Sporothrix schenckii P0019 isolate from cutaneous-lymphatic sporotrichosis patient after 72 hrs by modified NCCLS M38-A method
Sporothrix schenckii [2] = assay: Antifungal activity against Sporothrix schenckii P0019 isolate from cutaneous-lymphatic sporotrichosis patient after 72 hrs by ATB Fungus 2 method
Sporothrix schenckii [3] = assay: Antifungal activity against Sporothrix schenckii PSSA81 isolate from cutaneous-lymphatic sporotrichosis patient after 72 hrs by Sensititre YeastOne method
Sporothrix schenckii [4] = assay: Antifungal activity against Sporothrix schenckii PSSA81 isolate from cutaneous-lymphatic sporotrichosis patient after 72 hrs by ATB Fungus 2 method
Sporothrix schenckii [5] = assay: Antifungal activity against Sporothrix schenckii P25013 isolate from cutaneous-lymphatic sporotrichosis patient after 72 hrs by modified NCCLS M38-A method
Sporothrix schenckii [6] = assay: Antifungal activity against Sporothrix schenckii P14954 isolate from cutaneous-lymphatic sporotrichosis patient after 72 hrs by ATB Fungus 2 method
Sporothrix schenckii [7] = assay: Antifungal activity against Sporothrix schenckii MRSS4 isolate from cutaneous-lymphatic sporotrichosis patient after 72 hrs by Sensititre YeastOne method
Sporothrix schenckii [8] = assay: Antifungal activity against Sporothrix schenckii PSCC1 isolate from cutaneous-lymphatic sporotrichosis patient after 72 hrs by ATB Fungus 2 method
Sporothrix schenckii [9] = assay: Antifungal activity against Sporothrix schenckii P24255 isolate from cutaneous-lymphatic sporotrichosis patient after 72 hrs by modified NCCLS M38-A method
Sporothrix schenckii [10] = assay: Antifungal activity against Sporothrix schenckii P1621 isolate from cutaneous-lymphatic sporotrichosis patient after 72 hrs by ATB Fungus 2 method
Sporothrix schenckii [11] = assay: Antifungal activity against Sporothrix schenckii SSA29 isolate from cutaneous-lymphatic sporotrichosis patient after 72 hrs by Sensititre YeastOne method
Sporothrix schenckii [12] = assay: Antifungal activity against Sporothrix schenckii PGAC0016 isolate from cutaneous-lymphatic sporotrichosis patient after 72 hrs by Sensititre YeastOne method
Sporothrix schenckii [13] = assay: Antifungal activity against Sporothrix schenckii PJRC002 isolate from cutaneous-lymphatic sporotrichosis patient after 72 hrs by Sensititre YeastOne method
Sporothrix schenckii [14] = assay: Antifungal activity against Sporothrix schenckii PJRC002 isolate from cutaneous-lymphatic sporotrichosis patient after 72 hrs by ATB Fungus 2 method
Sporothrix schenckii [15] = assay: Antifungal activity against Sporothrix schenckii P14036 isolate from cutaneous-lymphatic sporotrichosis patient after 72 hrs by Sensititre YeastOne method
Sporothrix schenckii [16] = assay: Antifungal activity against Sporothrix schenckii P30915 isolate from cutaneous-lymphatic sporotrichosis patient after 72 hrs by modified NCCLS M38-A method
Sporothrix schenckii [17] = assay: Antifungal activity against Sporothrix schenckii P30915 isolate from cutaneous-lymphatic sporotrichosis patient after 72 hrs by Sensititre YeastOne method
Sporothrix schenckii [18] = assay: Antifungal activity against Sporothrix schenckii P3287 isolate from cutaneous-lymphatic sporotrichosis patient after 72 hrs by modified NCCLS M38-A method
Sporothrix schenckii [19] = assay: Antifungal activity against Sporothrix schenckii P3287 isolate from cutaneous-lymphatic sporotrichosis patient after 72 hrs by Sensititre YeastOne method
Aspergillus flavus [20] = assay: Antifungal activity against Aspergillus flavus ATCC 204304 […] after 72 hrs by modified NCCLS M38-A method; conditions: ATCC 204304, 72 h
Aspergillus flavus [21] = assay: Antifungal activity against Aspergillus flavus ATCC 204304 […] after 72 hrs by Sensititre YeastOne method; conditions: ATCC 204304, 72 h
Aspergillus flavus [22] = assay: Antifungal activity against Aspergillus flavus ATCC 204304 […] after 72 hrs by ATB Fungus 2 method; conditions: ATCC 204304, 72 h
Pichia kudriavzevii = assay: Antifungal activity against Candida krusei ATCC 6258 […] after 72 hrs by modified NCCLS M38-A method; conditions: ATCC 6258, 72 h
Candida parapsilosis = assay: Antifungal activity against Candida parapsilosis ATCC 22019 […] after 72 hrs by Sensititre YeastOne method; conditions: Lodderomyces parapsilosis, ATCC 22019, 72 h

Compound	MIC (Sporothrix schenckii [1])	MIC (Sporothrix schenckii [2])	MIC (Sporothrix schenckii [3])	MIC (Sporothrix schenckii [4])	MIC (Sporothrix schenckii [5])	MIC (Sporothrix schenckii [6])	MIC (Sporothrix schenckii [7])	MIC (Sporothrix schenckii [8])	MIC (Sporothrix schenckii [9])	MIC (Sporothrix schenckii [10])	MIC (Sporothrix schenckii [11])	MIC (Sporothrix schenckii [12])	MIC (Sporothrix schenckii [13])	MIC (Sporothrix schenckii [14])	MIC (Sporothrix schenckii [15])	MIC (Sporothrix schenckii [16])	MIC (Sporothrix schenckii [17])	MIC (Sporothrix schenckii [18])	MIC (Sporothrix schenckii [19])	MIC (Aspergillus flavus [20])	further results
C[C@@H]1[C@H](O)[C@@H](C)/C=C/C=C/C=C/C=C/C=C/C=C/C=C/[C@H](O[C@@H]2O[C@H](C)[C@@H](O)[C@H](N)[C@@H]2O)C[C@@H]2O[C@](O)(C[C@@H](O)C[C@@H](O)[C@H](O)CC[C@@H](O)C[C@@H](O)CC(=O)O[C@H]1C)C[C@H](O)[C@H]2C(=O)O [AMPHOTERICIN B]	0.125 µg/mL (≈ 0.135 µM)	≤ 0.5 µg/mL	0.06 µg/mL (≈ 0.0649 µM)	4 µg/mL (≈ 4.33 µM)	> 16 µg/mL	≤ 0.5 µg/mL	0.5 µg/mL (≈ 0.541 µM)	≤ 0.5 µg/mL	2 µg/mL (≈ 2.16 µM)	≤ 0.5 µg/mL	0.06 µg/mL (≈ 0.0649 µM)	0.125 µg/mL (≈ 0.135 µM)	1 µg/mL (≈ 1.08 µM)	1 µg/mL (≈ 1.08 µM)	0.5 µg/mL (≈ 0.541 µM)	0.25 µg/mL (≈ 0.271 µM)	0.5 µg/mL (≈ 0.541 µM)	> 16 µg/mL	0.5 µg/mL (≈ 0.541 µM)	4 µg/mL (≈ 4.33 µM)	MIC (Aspergillus flavus [21]): 0.5 µg/mL (≈ 0.541 µM); MIC (Aspergillus flavus [22]): > 16 µg/mL
OC(Cn1cncn1)(Cn1cncn1)c1ccc(F)cc1F [FLUCONAZOLE]	> 64 µg/mL	> 128 µg/mL	128 µg/mL (≈ 418 µM)	> 128 µg/mL	> 64 µg/mL	> 128 µg/mL	> 256 µg/mL	> 128 µg/mL	> 64 µg/mL	> 128 µg/mL	> 256 µg/mL	> 256 µg/mL	> 256 µg/mL	> 256 µg/mL	> 256 µg/mL	> 64 µg/mL	> 256 µg/mL	> 64 µg/mL	> 256 µg/mL		MIC (Pichia kudriavzevii): 128 µg/mL (≈ 418 µM)
CCC(C)n1ncn(-c2ccc(N3CCN(c4ccc(OCC5COC(Cn6cncn6)(c6ccc(Cl)cc6Cl)O5)cc4)CC3)cc2)c1=O (stereo unspecified) [ITRACONAZOLE]	0.25 µg/mL (≈ 0.354 µM)	2 µg/mL (≈ 2.83 µM)	0.06 µg/mL (≈ 0.085 µM)	1 µg/mL (≈ 1.42 µM)	0.5 µg/mL (≈ 0.709 µM)	4 µg/mL (≈ 5.67 µM)	0.25 µg/mL (≈ 0.354 µM)	1 µg/mL (≈ 1.42 µM)	0.5 µg/mL (≈ 0.709 µM)	2 µg/mL (≈ 2.83 µM)	0.25 µg/mL (≈ 0.354 µM)	0.13 µg/mL (≈ 0.184 µM)	0.13 µg/mL (≈ 0.184 µM)	1 µg/mL (≈ 1.42 µM)	0.25 µg/mL (≈ 0.354 µM)	0.5 µg/mL (≈ 0.709 µM)	0.5 µg/mL (≈ 0.709 µM)	0.25 µg/mL (≈ 0.354 µM)	0.25 µg/mL (≈ 0.354 µM)	0.5 µg/mL (≈ 0.709 µM)	MIC (Pichia kudriavzevii): 1 µg/mL (≈ 1.42 µM); MIC (Candida parapsilosis): 0.25 µg/mL (≈ 0.354 µM); MIC (Aspergillus flavus [21]): 0.25 µg/mL (≈ 0.354 µM); MIC (Aspergillus flavus [22]): 0.25 µg/mL (≈ 0.354 µM)

Reference: ChEMBL document CHEMBL1150788, “In vitro susceptibility of Sporothrix schenckii to six antifungal agents determined using three different methods” (2007)
